These results are taken from patent US5464617A, “β-lactam compounds” (Hoffmann-La Roche Inc., priority 1994, dated 1995).

Where a name gives a salt, the structure may show the parent alone.

Test [1] concerns Citrobacter freundii 1982. The experiment in a line: MIC in vitro of a 1:4 combination of ceftriaxone with a compound of formula I (Test D). Format: cell-based. Particulars: 1:4 combination of ceftriaxone with the compound; for MIC C. freundii 1982 (D): Table 4, test D; for MIC C. freundii 1982: Table 2. Here is the method: The minimum inhibitory concentration in vitro ([…]) of a 1:4 combination of ceftriaxone with a compound of formula I against Citrobacter freundii 1982 was measured and compiled in Table 2 hereinafter.

A further test deals with E. coli 1346. Briefly: Antibacterial activity of the products per se, serial dilution method in liquid medium (Test E). Format: cell-based. Particulars: product per se; for MIC E. coli 1346 (E): Table 4, test E; for MIC E. coli 1346: Table 3, liquid medium. The text has this:
The antibacterial activity of the products per se is illustrated on the basis of Table 3 hereinafter, the minimum inhibitory concentration […] in vitro against E. coli 1346 being determined using the serial dilution method in liquid medium: […]

In the case of `Nc1nnc(SCC2=C(C(=O)O)N3C(=O)[C@@H]4[C@H]3[C@H](C2)CN4C(=O)C(F)(F)F)s1` [19(h), (1aS,3aR,6bR)-5-(5-Amino-1,3,4-thiadiazol-2-ylsulphanylmethyl)-1-oxo-2-trifluoroacetyl-1a,2,3,3a,4,6b-hexahydro-1H-2,6a-diaza-cyclobut[cd]indene-6-carboxylic acid sodium salt], the “MIC C. freundii 1982 (D)” value in test [1] came to 0.5 µg/mL. In addition, the “MIC E. coli 1346 (E)” value against E. coli 1346 was determined as 2 µg/mL.
As to `O=C([O-])C1=C(C[n+]2ccccc2)C[C@@H]2CN[C@@H]3C(=O)N1[C@H]23` [Example 22, (1aS,3aR,6bR)-1-Oxo-5-(pyridin-1-yliomethyl)-1a,2,3,3a,4,6b-hexahydro-1H-2,6a-diazacyclobut[cd]indene-6-carboxylate trifluoroacetate], the “MIC C. freundii 1982” value in test [1] was 4 µg/mL. Also, in the test with E. coli 1346, the “MIC E. coli 1346” value was 4 µg/mL.
As for `NC(=O)OCC1=C(C(=O)O)N2C(=O)[C@@H]3[C@H]2[C@H](C1)CN3C(=O)NCc1ccc(O)cc1` [27(h), (1aS,3aR,6bR)-5-Carbamoyloxymethyl-2-(4-hydroxybenzylcarbamoyl)-1-oxo-1a,2,3,3a,4,6b-hexahydro-1H-2,6a-diaza-cyclobut[cd]indene-6-carboxylic acid sodium salt], in test [1], the “MIC C. freundii 1982 (D)” value stood at 0.25 µg/mL. The “MIC E. coli 1346 (E)” value in the test with E. coli 1346 was > 32 µg/mL.
`Cn1nnnc1SCC1=C(C(=O)O)N2C(=O)[C@@H]3[C@H]2[C@H](C1)CN3C(=O)NCc1ccc(O)cc1` [18(h), (1aS,3aR,6bR)-2-(4-Hydroxy-benzylcarbamoyl)-5-(1-methyl-1H-tetrazol-5-ylsulphanylmethyl)-1-oxo-1a,2,3,3a,4,6b-hexahydro-1H-2,6a-diazacyclobut[cd]indene-6-carboxylic acid sodium salt]: the “MIC C. freundii 1982 (D)” value in test [1] is 0.5 µg/mL. Also, in the test on E. coli 1346, the “MIC E. coli 1346 (E)” value worked out at 16 µg/mL.
As for `O=C(NC1CC1)OCC1=C(C(=O)O)N2C(=O)[C@H]3NC[C@@H](C1)[C@H]32` [Example 93, (1aS,3aR,6bR)-5-Cyclopropylcarbamoyloxymethyl-1-oxo-1a,2,3,3a,4,6b-hexahydro-1H-2,6a-diazacyclobut[cd]indene-6-carboxylicacid trifluoroacetate], the “MIC C. freundii 1982 (D)” value in test [1] is 2 µg/mL. In addition, in the test on E. coli 1346, the “MIC E. coli 1346 (E)” value amounted to 8 µg/mL.
`O=C(Nc1ccc(O)cc1)OCC1=C(C(=O)O)N2C(=O)[C@H]3NC[C@@H](C1)[C@H]32` [Example 89, (1aS,3aR,6bR)-5-(4-Hydroxy-phenylcarbamoyloxymethyl)-1-oxo-1a,2,3,3a,4,6b-hexahydro-1H-2,6a-diazacyclobut[cd]indene-6-carboxylic acid trifluoroacetate]: the “MIC C. freundii 1982 (D)” value in test [1] was found to be 2 µg/mL. For the same molecule, the “MIC E. coli 1346 (E)” value against E. coli 1346 stood at 4 µg/mL.
Turning to `Cn1nnnc1SCC1=C(C(=O)O)N2C(=O)[C@@H]3[C@H]2[C@@H](CN3C(=O)Nc2ccc(C(N)=O)cc2)O1` [31(i), (1aS,3aR,6bS)-2-(4-Carbamoyl-phenylcarbamoyl)-5-(1-methyl-1H-tetrazol-5-ylsulphanylmethyl)-1-oxo-1,1a,2,3,3a,6b-hexahydro-4-oxa-2,6a-diazacyclobut[cd]indene-6-carboxylic acid sodium salt], the “MIC C. freundii 1982 (D)” value in test [1] came to 0.5 µg/mL. For the same molecule, in the test on E. coli 1346, the “MIC E. coli 1346 (E)” value was found to be 8 µg/mL.
In the case of `[N-]=[N+]=NCC1=C(C(=O)O)N2C(=O)[C@@H]3[C@H]2[C@H](C1)CN3C(=O)C(F)(F)F` [83(b), (1aS,3aR,6bR)-5-Azidomethyl-2-trifluoroacetyl-1-oxo-1a,2,3,3a,4,6b-hexahydro-1H-2,6a-diazacyclobut[cd]indene-6-carboxylic acid sodium salt], the “MIC C. freundii 1982 (D)” value in test [1] came to 0.5 µg/mL. The “MIC E. coli 1346 (E)” value against E. coli 1346 came out at 0.5 µg/mL.
For the molecule `O=C([O-])C[n+]1ccc(SCC2=C(C(=O)O)N3C(=O)[C@@H]4[C@H]3[C@H](C2)CN4C(=O)NCc2ccccc2)cc1` [Example 51, (1aS,3aR,6bR)-[4-(2-Benzylcarbamoyl-6-carboxy-1-oxo-1a,2,3,3a,4,6b-hexahydro-1H-2,6a-diazacyclobut[cd]inden-5-ylmethylsulphanyl)-pyridin-2-ylio]-acetate sodium salt], the “MIC C. freundii 1982 (D)” value in test [1] worked out at 1 µg/mL. The “MIC E. coli 1346 (E)” value against E. coli 1346 is > 32 µg/mL.
As for `O=C([O-])C[n+]1ccc(SCC2=C(C(=O)O)N3C(=O)[C@@H]4[C@H]3[C@H](C2)CN4C(=O)C(F)(F)F)cc1` [Example 52(b), (1aS,3aR,6bR)-[4-(2-Trifluoroacetyl-6-carboxy-1-oxo-1a,2,3,3a,4,6b-hexahydro-1H-2,6a-diazacyclobut[cd]inden-5-ylmethylsulphanyl)-pyridin-1-ylio]-acetate sodium salt], the “MIC C. freundii 1982 (D)” value in test [1] came out at 1 µg/mL. Moreover, the “MIC E. coli 1346 (E)” value against E. coli 1346 came to 2 µg/mL.
In the case of `NC(=O)c1ccc(NC(=O)N2C[C@H]3OC(CSc4ccncc4)=C(C(=O)O)N4C(=O)[C@@H]2[C@@H]34)cc1` [31(e), (1aS,3aR,6bS)-2-(4-Carbamoyl-phenylcarbamoyl)-1-oxo-5-(pyridin-4-ylsulphanylmethyl)-1,1a,2,3,3a,6 b-hexahydro-4-oxa-2,6a-diazacyclobut[cd]indene-6-carboxylic acid sodium salt], in test [1], the “MIC C. freundii 1982 (D)” value was determined as 0.5 µg/mL. The “MIC E. coli 1346 (E)” value against E. coli 1346 is > 32 µg/mL.
Turning to `CS(=O)(=O)OC1=C(C(=O)O)N2C(=O)[C@@H]3[C@H]2[C@H](C1)CN3C(=O)Nc1ccc(O)cc1` [9(a), (1aS,3aR,6bR)-2-(4-Hydroxy-phenylcarbamoyl)-5-methylsulphonyloxy-1-oxo-1a,2,3,3a,4,6b-hexahydro-1H-2,6a-diazacyclobut[cd]indene-6-carboxylic acid sodium salt], the “MIC C. freundii 1982” value in test [1] came out at 0.12 µg/mL. Further, the “MIC E. coli 1346” value with E. coli 1346 was determined as 32 µg/mL.
Take `CNC(=O)Cn1nnnc1SCC1=C(C(=O)O)N2C(=O)[C@@H]3[C@H]2[C@@H](CN3C(C)=O)O1` [32(f), (1aS,3aR, 6bS)-2-Acetyl-5-(1-methyl-carbamoylmethyl-1H-tetrazol-5-ylsulphanylmethyl)-1-oxo-1,1a,2,3,3a,6b-hexahydro-4-oxa-2,6a-diazacyclobut[cd]indene-6-carboxylic acid sodium salt]: the “MIC C. freundii 1982 (D)” value in test [1] was 8 µg/mL. The “MIC E. coli 1346 (E)” value against E. coli 1346 is 4 µg/mL.
On to `O=C(NCC(F)(F)F)OCC1=C(C(=O)O)N2C(=O)[C@@H]3[C@H]2[C@H](C1)CN3C(=O)C(F)(F)F` [92(b), (1aS,3aR,6bR)-1-Oxo-2-trifluoroacetyl-5-(2,2,2-trifluoroethylcarbamoyloxymethy)-1a,2,3,3a,4,6b-hexahydro-1H-2,6a-diazacyclobut[cd]indene-6-carboxylicacid sodium salt], for which the “MIC C. freundii 1982 (D)” value in test [1] is 2 µg/mL. For the same molecule, the “MIC E. coli 1346 (E)” value against E. coli 1346 was 4 µg/mL.
For the molecule `Cc1nnc(SC2=C(C(=O)O)N3C(=O)[C@H]4NC[C@@H](C2)[C@H]43)s1` [Example 2(b), (1aS,3aR,6bR)-5-(5-Methyl-1,3,4-thiadiazol-2-ylsulphanyl)-1-oxo-1a, 2,3,3a,4,6b-hexahydro-1H-2,6a-diazcyclobut[cd]indene-6-carboxylic acid trifluoroacetate], the “MIC C. freundii 1982” value in test [1] worked out at 1 µg/mL. In the test on E. coli 1346, the “MIC E. coli 1346” value was found to be 4 µg/mL.
